According to patent US5126258A (priority 1988, dated 1992):

Assays:
Format in all cases: biochemical, mouse
[1] = test system: monoclonal receptor P3 6D4; assay: Stoichiometric transacylation reaction of monoclonal receptor P3 6D4 with coumarin ester Compound 5 (fluorescence) and its inhibition/inactivation
Outline: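 Antibody P3 6D4 (100 nM final) reacted at 23 °C with coumarin ester 5 in Tris-HCl or phosphate buffer (50 mM, pH 4–9), followed by fluorescence (ex 355/em 455 nm). Initial rates corrected for spontaneous hydrolysis; kinetic parameters from hyperbolic and double-reciprocal fits, Ki from Lineweaver-Burk with ≥5 inhibitor concentrations.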

[2] = test system: P2 50D8; assay: Catalytic hydrolysis by receptor P2 50D8
Procedure: Two further catalytic monoclonal receptors were similarly prepared by another fusion using Compound 2i linked to an antigenic carrier as immunogen. Those two catalytic receptor molecules and their hybridomas were designated "P2 50D8" and "P2 57G4".
In one study, twenty-eight monoclonal anti-hapten antibodies to phosphonate 2i from two separate fusion experiments were assayed. […] Antibodies to Compound 4i as hapten were assayed in the same manner. Twelve gamma-globulins were screened as described above. Compound 5 is homologous only in the acyl portion of this larger hapten; however, all but three of these cross-reacted with smaller phosphonate 2 in an ELISA assay as described herein. For two of these there was observed a fluorescence change, occurring in the first 5 minutes of incubation, which corresponds to about 50 percent of that for complete hydrolysis. The background rate of hydrolysis was reestablished after this initial reaction leveled off.

[3] = test system: twenty-eight monoclonal anti-hapten antibodies to phosphonate 2i; assay: Fluorescence assay of twenty-eight anti-phosphonate 2i antibodies with Compound 5; conditions: pH 7.2
Procedure: A Perkin-Elmer LS-5 fluorescence spectrometer was operated at a fixed wavelength, using 355 nanometers (nm) for excitation and measuring the emission at 455 nm. A stock solution of the coumarin ester 5 was prepared in dioxane and was diluted to the desired concentrations in Tris-HCl (50 mM, pH 7) or sodium phosphate (50 mM, pH 4-9).
Reactions were run at 23 degrees C and were initiated by the addition of an aliquot of antibody solution (1 mg/ml) to substrate solutions to provide a final protein concentration of 100 nM. Final fluorescence values were determined by hydrolysis of the substrate with pig liver esterase. The observed reaction rate was corrected for spontaneous hydrolysis. […] Active protein concentration was extrapolated from fluorescence values at the end of the reaction. […] Inhibition constants were determined from the Lineweaver-Burk plot data with at least five inhibitor concentrations. […]
The practical range of pH for the assay is limited by the rapid spontaneous rate of hydrolysis of an ester Compound 5 above pH 8.0. […] Any change in fluorescence above background was noted.
In one study, twenty-eight monoclonal anti-hapten antibodies to phosphonate 2i from two separate fusion experiments were assayed. […] For two of these there was observed a fluorescence change, occurring in the first 5 minutes of incubation, which corresponds to about 50 percent of that for complete hydrolysis. […]

[4] = test system: Monoclonal Receptor 37G2; assay: Kinetics of hydrolysis by receptor 37G2
Excerpt: Reaction kinetics were studied using three reactant ligands as substrates for monoclonal receptors 37G2 and 22F5. Data from initial rates were consistent with Michaelis-Menten reaction mechanism for a usual enzyme-substrate system. Initial rates were followed using at 271 nm using a U.V.-visible spectorphotometer for Compound 17, and a fluorescence spectrometer for Compounds 5 and 20, using an excitation wavelength of 355 nm and an emission wavelength of 455 nm for both compounds.
Lineweaver-Burke plots for the catalyzed hydrolysis of Compounds 17, 5 and 20 obtained in the presence and absence of Compound 12i as inhibitor were prepared as discussed for FIG. 4. In particular, Compound 17 was present at concentrations of 1-16 uM with inhibitor concentrations of 100 and 300 nanomolar (nM). Compound 5 was present at concentrations of 1-10 uM with inhibitor concentrations of 100 and 200 nM. Compound 20 was present at concentrations of 2-20 uM with inhibitor concentrations of 25 and 100 nM. […]
50 mM phosphate buffer at a pH value of 8.0. The reactant ligand was
dissolved in dioxane and admixed in the amounts discussed above. Two
milliliters of reaction solution were utilized as was a dioxane
concentration of 2 percent by volume. Assays with Compound 17 as reac tan
ligand utilized 500 nanomolar receptor (based on a molecular weight of
150,000 daltons) in the above buffer, using the reactant ligand dissolved
in dioxane and a total dioxane concentration of 2 percent by volume.

Row | inactivation of receptor [1] | stoichiometry, mole of ester per mole of combining sites ([1]; IgG molecular weight 150,000 assumed) | rate change pH 8.0 versus pH 7.0 ([1]; preliminary) | catalytic hydrolysis by P2 50D8 [2] | Km ([4]; 50 mM phosphate pH 8.0, 500 nM receptor, 2% dioxane, figure = Km × 10^6) [µM] | kcat ([4]; pH 8.0) [s⁻¹] | Vmax ([4]; pH 8.0, 500 nM receptor, figure = Vmax × 10^9) [µM/min] | SMILES | reactivity with Compound 5 in fluorescence assay [3]
1 | specific inactivator | one | modest rate increase | capable of catalytically hydrolyzing | – | – | – | O=C(Cc1ccc(NC(=O)C(F)(F)F)cc1)Oc1ccc2ccc(=O)oc2c1 [Compound 5] | None of these were reactive
2 | – | – | – | – | 15 | 0.0016 | 0.042 | CC(=O)Nc1ccc(CC(=O)Oc2cccc3ccccc23)cc1 [Compound 17] | –
